Where “and” joins values, the source holds several entries; their conditions need not be identical. Equal entries are not always repeated. Toxic doses and inconclusive results are not listed.
Tested on: L1210 leukemia ip in BDF1 mice, survival T/C
Experiment: NCI In Vivo Anticancer Drug Screen. Data for tumor model L1210 Leukemia (intraperitoneal) in B6D2F1 (BDF1) mice
Conditions: higher = longer survival
In short: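 Ratio derived from survival: compound-dosed mice over vehicle-dosed mice, all bearing a transplantable tumor.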

Structure (SMILES): COc1ccc2[nH]c3c(C)c4ccncc4c(C)c3c2c1
- T/C (endpoint: mean survival time, dose: 2.5 mg/kg/injection, schedule: Q01DX009 (ip), vehicle: Klucel (hydroxypropylcellulose) (HPC)): 93 % of control
- T/C (endpoint: mean survival time, dose: 3.12 mg/kg/injection, schedule: Q01DX009 (ip), vehicle: citric acid): 113 % of control and 124 % of control
- T/C (endpoint: mean survival time, dose: 3.12 mg/kg/injection, schedule: Q01DX009 (ip), vehicle: clinical formulation): 109 % of control and 121 % of control
- T/C (endpoint: mean survival time, dose: 3.12 mg/kg/injection, schedule: Q04DX003 (ip), vehicle: citric acid): 106 % of control
- T/C (endpoint: mean survival time, dose: 3.12 mg/kg/injection, schedule: Q04DX003 (ip), vehicle: clinical formulation): 104 % of control
- T/C (endpoint: mean survival time, dose: 5.0 mg/kg/injection, schedule: Q01DX009 (ip), vehicle: Klucel (hydroxypropylcellulose) (HPC)): 106 % of control
- T/C (endpoint: mean survival time, dose: 6.0 mg/kg/injection, schedule: Q01DX Z (ip), vehicle: saline): 112 % of control
- T/C (endpoint: mean survival time, dose: 6.25 mg/kg/injection, schedule: Q01DX009 (ip), vehicle: citric acid): 122 % of control
- T/C (endpoint: mean survival time, dose: 6.25 mg/kg/injection, schedule: Q04DX003 (ip), vehicle: citric acid): 109 % of control and 112 % of control
- T/C (endpoint: mean survival time, dose: 6.25 mg/kg/injection, schedule: Q04DX003 (ip), vehicle: clinical formulation): 106 % of control and 108 % of control
- T/C (endpoint: mean survival time, dose: 9.37 mg/kg/injection, schedule: Q01DX001 (ip), vehicle: other): 102 % of control
- T/C (endpoint: mean survival time, dose: 9.37 mg/kg/injection, schedule: Q01DX001 (sc), vehicle: other): 98 % of control
- T/C (endpoint: mean survival time, dose: 9.37 mg/kg/injection, schedule: Q04DX003 (ip), vehicle: other): 103 % of control
- T/C (endpoint: mean survival time, dose: 9.38 mg/kg/injection, schedule: Q04DX003 (ip), vehicle: clinical formulation): 104 % of control
- T/C (endpoint: mean survival time, dose: 9.38 mg/kg/injection, schedule: Q04DX003 (ip), vehicle: lactic acid): 121 % of control
- T/C (endpoint: mean survival time, dose: 10.0 mg/kg/injection, schedule: Q01DX009 (ip), vehicle: Klucel (hydroxypropylcellulose) (HPC)): 109 % of control
- T/C (endpoint: mean survival time, dose: 12.0 mg/kg/injection, schedule: Q01DX001 (ip), vehicle: saline): 106 % of control
- T/C (endpoint: mean survival time, dose: 12.0 mg/kg/injection, schedule: Q01DX Z (ip), vehicle: saline): 109 % of control and 123 % of control
- T/C (endpoint: mean survival time, dose: 12.0 mg/kg/injection, schedule: Q01DX Z (oral), vehicle: saline): 116 % of control
- T/C (endpoint: mean survival time, dose: 12.5 mg/kg/injection, schedule: Q01DX009 (ip), vehicle: citric acid): 150 % of control
- T/C (endpoint: mean survival time, dose: 12.5 mg/kg/injection, schedule: Q04DX003 (ip), vehicle: citric acid): 116 % of control
- T/C (endpoint: mean survival time, dose: 12.5 mg/kg/injection, schedule: Q04DX003 (ip), vehicle: clinical formulation): 117 % of control and 120 % of control
- T/C (endpoint: mean survival time, dose: 18.75 mg/kg/injection, schedule: Q01DX001 (ip), vehicle: other): 108 % of control and 109 % of control
- T/C (endpoint: mean survival time, dose: 18.75 mg/kg/injection, schedule: Q01DX001 (sc), vehicle: other): 104 % of control
- T/C (endpoint: mean survival time, dose: 18.75 mg/kg/injection, schedule: Q04DX003 (ip), vehicle: other): 118 % of control
- T/C (endpoint: mean survival time, dose: 20.0 mg/kg/injection, schedule: Q01DX009 (ip), vehicle: Klucel (hydroxypropylcellulose) (HPC)): 119 % of control
- T/C (endpoint: mean survival time, dose: 25.0 mg/kg/injection, schedule: Q01DX001 (ip), vehicle: saline): 104 % of control
- T/C (endpoint: mean survival time, dose: 25.0 mg/kg/injection, schedule: Q01DX009 (ip), vehicle: citric acid): 93 % of control
- T/C (endpoint: mean survival time, dose: 25.0 mg/kg/injection, schedule: Q01DX009 (ip), vehicle: clinical formulation): 101 % of control
- T/C (endpoint: mean survival time, dose: 37.5 mg/kg/injection, schedule: Q01DX001 (ip), vehicle: other): 114 % of control and 120 % of control
- T/C (endpoint: mean survival time, dose: 37.5 mg/kg/injection, schedule: Q01DX001 (ip), vehicle: saline): 104 % of control
- T/C (endpoint: mean survival time, dose: 37.5 mg/kg/injection, schedule: Q01DX001 (oral), vehicle: other): 118 % of control
- T/C (endpoint: mean survival time, dose: 37.5 mg/kg/injection, schedule: Q01DX001 (sc), vehicle: other): 113 % of control
- T/C (endpoint: mean survival time, dose: 37.5 mg/kg/injection, schedule: Q01DX001 (sc), vehicle: saline): 104 % of control
- T/C (endpoint: mean survival time, dose: 37.5 mg/kg/injection, schedule: Q04DX003 (oral), vehicle: other): 113 % of control
- T/C (endpoint: mean survival time, dose: 50.0 mg/kg/injection, schedule: Q01DX001 (ip), vehicle: other): 105 % of control
- T/C (endpoint: mean survival time, dose: 50.0 mg/kg/injection, schedule: Q01DX001 (ip), vehicle: saline): 98 % of control
- T/C (endpoint: mean survival time, dose: 50.0 mg/kg/injection, schedule: Q04DX003 (ip), vehicle: clinical formulation): 123 % of control
- T/C (endpoint: mean survival time, dose: 75.0 mg/kg/injection, schedule: Q01DX001 (ip), vehicle: saline): 111 % of control and 113 % of control and 115 % of control
- T/C (endpoint: mean survival time, dose: 75.0 mg/kg/injection, schedule: Q01DX001 (oral), vehicle: other): 124 % of control
- T/C (endpoint: mean survival time, dose: 75.0 mg/kg/injection, schedule: Q01DX001 (oral), vehicle: saline): 113 % of control
- T/C (endpoint: mean survival time, dose: 75.0 mg/kg/injection, schedule: Q01DX001 (sc), vehicle: other): 112 % of control
- T/C (endpoint: mean survival time, dose: 75.0 mg/kg/injection, schedule: Q01DX001 (sc), vehicle: saline): 100 % of control
- T/C (endpoint: mean survival time, dose: 100.0 mg/kg/injection, schedule: Q01DX Z (ip), vehicle: carboxymethylcellulose (CMC)): 96 % of control
- T/C (endpoint: mean survival time, dose: 100.0 mg/kg/injection, schedule: Q01DX Z (ip), vehicle: saline): 109 % of control
- T/C (endpoint: mean survival time, dose: 100.0 mg/kg/injection, schedule: Q04DX003 (ip), vehicle: citric acid): 110 % of control
- T/C (endpoint: mean survival time, dose: 100.0 mg/kg/injection, schedule: Q04DX003 (ip), vehicle: clinical formulation): 93 % of control and 103 % of control
- T/C (endpoint: mean survival time, dose: 115.0 mg/kg/injection, schedule: Q01DX001 (ip), vehicle: saline): 113 % of control
- T/C (endpoint: mean survival time, dose: 115.0 mg/kg/injection, schedule: Q01DX Z (oral), vehicle: saline): 95 % of control
- T/C (endpoint: mean survival time, dose: 150.0 mg/kg/injection, schedule: Q01DX001 (ip), vehicle: saline): 118 % of control
- T/C (endpoint: mean survival time, dose: 150.0 mg/kg/injection, schedule: Q01DX001 (sc), vehicle: other): 120 % of control
- T/C (endpoint: mean survival time, dose: 150.0 mg/kg/injection, schedule: Q01DX001 (sc), vehicle: saline): 107 % of control
- T/C (endpoint: mean survival time, dose: 170.0 mg/kg/injection, schedule: Q01DX001 (ip), vehicle: saline): 108 % of control
- T/C (endpoint: mean survival time, dose: 170.0 mg/kg/injection, schedule: Q01DX Z (ip), vehicle: saline): 104 % of control
- T/C (endpoint: mean survival time, dose: 225.0 mg/kg/injection, schedule: Q01DX001 (ip), vehicle: saline): 115 % of control
- T/C (endpoint: mean survival time, dose: 255.0 mg/kg/injection, schedule: Q01DX Z (ip), vehicle: saline): 96 % of control
- T/C (endpoint: mean survival time, dose: 255.0 mg/kg/injection, schedule: Q01DX Z (oral), vehicle: saline): 106 % of control
- T/C (endpoint: mean survival time, dose: 300.0 mg/kg/injection, schedule: Q01DX001 (ip), vehicle: saline): 122 % of control
- T/C (endpoint: mean survival time, dose: 300.0 mg/kg/injection, schedule: Q01DX001 (sc), vehicle: saline): 103 % of control
- T/C (endpoint: mean survival time, dose: 600.0 mg/kg/injection, schedule: Q01DX001 (oral), vehicle: other): 92 % of control
- T/C (endpoint: mean survival time, dose: 600.0 mg/kg/injection, schedule: Q01DX001 (sc), vehicle: saline): 111 % of control
- T/C (endpoint: mean survival time, dose: 1200.0 mg/kg/injection, schedule: Q01DX001 (oral), vehicle: saline): 104 % of control
- T/C (endpoint: median survival time, dose: 2.0 mg/kg/injection, schedule: Q03HX008 (oral), vehicle: other): 100 % of control
- T/C (endpoint: median survival time, dose: 2.0 mg/kg/injection, schedule: Q03HX008 (sc), vehicle: water): 100 % of control
- T/C (endpoint: median survival time, dose: 4.0 mg/kg/injection, schedule: Q01DX009 (ip), vehicle: other): 116 % of control
- T/C (endpoint: median survival time, dose: 4.0 mg/kg/injection, schedule: Q01DX009 (oral), vehicle: other): 111 % of control
- T/C (endpoint: median survival time, dose: 4.0 mg/kg/injection, schedule: Q01DX009 (sc), vehicle: water): 100 % of control
- T/C (endpoint: median survival time, dose: 4.0 mg/kg/injection, schedule: Q03HX008 (oral), vehicle: other): 111 % of control
- T/C (endpoint: median survival time, dose: 4.0 mg/kg/injection, schedule: Q03HX008 (sc), vehicle: water): 111 % of control
- T/C (endpoint: median survival time, dose: 8.0 mg/kg/injection, schedule: Q01DX009 (oral), vehicle: other): 111 % of control
- T/C (endpoint: median survival time, dose: 8.0 mg/kg/injection, schedule: Q01DX009 (sc), vehicle: water): 116 % of control
- T/C (endpoint: median survival time, dose: 8.0 mg/kg/injection, schedule: Q03HX008 (oral), vehicle: other): 94 % of control
- T/C (endpoint: median survival time, dose: 8.0 mg/kg/injection, schedule: Q03HX008 (sc), vehicle: water): 122 % of control
- T/C (endpoint: median survival time, dose: 16.0 mg/kg/injection, schedule: Q01DX001 (oral), vehicle: other): 100 % of control
- T/C (endpoint: median survival time, dose: 16.0 mg/kg/injection, schedule: Q01DX001 (sc), vehicle: water): 111 % of control
- T/C (endpoint: median survival time, dose: 16.0 mg/kg/injection, schedule: Q01DX009 (ip), vehicle: water): 111 % of control
- T/C (endpoint: median survival time, dose: 16.0 mg/kg/injection, schedule: Q01DX009 (oral), vehicle: other): 122 % of control
- T/C (endpoint: median survival time, dose: 16.0 mg/kg/injection, schedule: Q03HX008 (oral), vehicle: other): 116 % of control
- T/C (endpoint: median survival time, dose: 32.0 mg/kg/injection, schedule: Q01DX001 (oral), vehicle: other): 111 % of control
- T/C (endpoint: median survival time, dose: 32.0 mg/kg/injection, schedule: Q01DX009 (ip), vehicle: other): 100 % of control
- T/C (endpoint: median survival time, dose: 32.0 mg/kg/injection, schedule: Q01DX009 (ip), vehicle: water): 100 % of control
- T/C (endpoint: median survival time, dose: 32.0 mg/kg/injection, schedule: Q01DX009 (oral), vehicle: other): 105 % of control
- T/C (endpoint: median survival time, dose: 32.0 mg/kg/injection, schedule: Q03HX008 (sc), vehicle: water): 150 % of control
- T/C (endpoint: median survival time, dose: 64.0 mg/kg/injection, schedule: Q01DX001 (oral), vehicle: other): 111 % of control
- T/C (endpoint: median survival time, dose: 64.0 mg/kg/injection, schedule: Q01DX001 (sc), vehicle: water): 111 % of control
- T/C (endpoint: median survival time, dose: 64.0 mg/kg/injection, schedule: Q01DX009 (sc), vehicle: water): 116 % of control
- T/C (endpoint: median survival time, dose: 128.0 mg/kg/injection, schedule: Q01DX001 (oral), vehicle: other): 122 % of control
- T/C (endpoint: median survival time, dose: 128.0 mg/kg/injection, schedule: Q01DX009 (oral), vehicle: other): 111 % of control
- T/C (endpoint: median survival time, dose: 256.0 mg/kg/injection, schedule: Q01DX001 (sc), vehicle: water): 122 % of control
